Source: patent US9282741B2, “Aniline type compounds” (BASF SE, priority 2011, dated 2016)

System: Tobacco Budworm (Heliothis virescens)
Assay: Tobacco budworm (Heliothis virescens) I, foliar spray on cotton plants
Type: in vivo
Settings: 800 ppm, 4 days after treatment
Method: B.3 Tobacco Budworm (Heliothis virescens) I
The active compounds are formulated in cyclohexanone as a 10,000 ppm solution supplied in tubes. The tubes are inserted into an automated electrostatic sprayer equipped with an atomizing nozzle and they serve as stock solutions for which lower dilutions are made in 50% acetone:50% water (v/v). A nonionic surfactant (Kinetic®) is included in the solution at a volume of 0.01% (v/v).
Cotton plants are grown 2 plants to a pot and selected for treatment at the cotyledon stage. Test solutions are sprayed onto the foliage by an automated electrostatic plant sprayer equipped with an atomizing spray nozzle. The plants are dried in the sprayer fume hood and then removed from the sprayer. Each pot is placed into perforated plastic bags with a zip closure. About 10 to 11 budworm larvae are placed into the bag and the bags zipped closed. Test plants are maintained in a growth room at about 250C and about 20-40% relative humidity for 4 days, avoiding direct exposure to fluorescent light (24 hour photoperiod) to prevent trapping of heat inside the bags. Mortality and reduced feeding are assessed 4 days after treatment, compared to untreated control plants.
With `CCCS(CCC)=NC(=O)c1cc(Cl)cc(Cl)c1N` [S.22] the “mortality in comparison with untreated controls” value was “over 75%”.

System: not listed separately
Assay: log P determination via capillary electrophorese (cePro9600)
Type: physicochemical
Settings: pH = 10.0
Method: log P determinations were performed via capillary electrophorese on a cePro9600™ from CombiSep.
With `Cc1cc(I)cc(C(=O)N=S2CCSC2)c1NC(=O)c1cc(C(F)(F)F)nn1-c1ncccc1Cl` (centres unmarked) [compound 129] the logP was “logP: 3.5 [pH = 10.0];”. With `Cc1cccc(C(=O)N=S(C(C)C)C(C)C)c1NC(=O)c1cc(C(F)(F)F)nn1-c1ncccc1Cl` [compound 214] the logP was “logP: 2.7 [pH = 10.0];”. With `Cc1cc(Cl)cc(C(=O)N=S(C(C)C)C(C)C)c1NC(=O)c1cc(C(F)(F)F)nn1-c1ncccc1Cl` [compound 24] the logP was “logP: 3.3 [pH = 10.0]”. For `C#CCOc1cc(C(=O)Nc2c(C)cc(I)cc2C(=O)N=S(C)c2ccc(F)cc2)n(-c2ncccc2Cl)n1` (centres unmarked) [compound 204], the logP was “logP: 3.4 [pH = 10.0]”. In the case of `Cc1cccc(C(=O)N=S(C)c2ccc(F)cc2)c1NC(=O)c1cc(Br)nn1-c1ncccc1Cl` (centres unmarked) [compound 237], the logP is reported as “logP: 2.7 [pH = 10.0];”. With `Cc1cccc(C(=O)N=S(C)C)c1NC(=O)c1cc(C(F)(F)F)nn1-c1ncccc1Cl` [compound 199] the logP was “logP: 2.2 [pH = 10.0];”. With `Cc1cc(Cl)cc(C(=O)N=S(C)C)c1NC(=O)c1cc(C(F)(F)F)nn1-c1ncccc1Cl` [compound 110] the logP was “logP: 2.9 [pH = 10.0];”. In the case of `C#CCOc1cc(C(=O)Nc2c(C)cc(Cl)cc2C(=O)N=S2CCCCC2)n(-c2ncccc2Cl)n1` [compound 209], the logP is reported as “logP: 2.8 [pH = 10.0]”. For `C#CCOc1cc(C(=O)Nc2c(C)cc(I)cc2C(=O)N=S(C(C)C)C(C)C)n(-c2ncccc2Cl)n1` [compound 196], the logP was “logP: 3.1 [pH = 10.0]”. In the case of `CCCCCS(CCO)=NC(=O)c1cccc(C)c1NC(=O)c1cc(Br)nn1-c1ncccc1Cl` (centres unmarked) [compound 250], the logP is reported as “logP: 2.9 [pH = 10.0]”. In the case of `Cc1cc(I)cc(C(=O)N=S2CCCC2)c1NC(=O)c1cc(Br)nn1-c1ncccc1Cl` [compound 246], the logP is reported as “logP: 2.9 [pH = 10.0];”. With `Cc1cccc(C(=O)N=S(C)c2ccc(F)cc2)c1NC(=O)c1cc(C(F)(F)F)nn1-c1ncccc1Cl` (centres unmarked) [compound 215] the logP was “logP: 3.2 [pH = 10.0];”. In the case of `Cc1cccc(C(=O)N=S2CCCC2)c1NC(=O)c1cc(Br)nn1-c1ncccc1Cl` [compound 222], the logP is reported as “logP: 2.1 [pH = 10.0]”. With `CCS(C)=NC(=O)c1cc(I)cc(C)c1NC(=O)c1cc(Br)nn1-c1ncccc1Cl` (centres unmarked) [compound 223] the logP was “logP: 3.1 [pH = 10.0];”. In the case of `C#CCOc1cc(C(=O)Nc2c(C)cc(Cl)cc2C(=O)N=S2CCSC2)n(-c2ncccc2Cl)n1` (centres unmarked) [compound 200], the logP is reported as “logP: 2.5 [pH = 10.0]”. In the case of `Cc1cc(I)cc(C(=O)N=S2CCCCC2)c1NC(=O)c1cc(C(F)(F)F)nn1-c1ncccc1Cl` [compound 71], the logP is reported as “logP: 3.6 [pH = 10.0];”. In the case of `CCS(C)=NC(=O)c1cc(I)cc(C)c1NC(=O)c1cc(C(F)(F)F)nn1-c1ncccc1Cl` (centres unmarked) [compound 33], the logP is reported as “logP: 3.3 [pH = 10.0];”. In the case of `Cc1cc(I)cc(C(=O)N=S(C)c2ccc(F)cc2)c1NC(=O)c1cc(Br)nn1-c1ncccc1Cl` (centres unmarked) [compound 238], the logP is reported as “logP: 3.5 [pH = 10.0];”. With `CCCCCS(CCO)=NC(=O)c1cc(I)cc(C)c1NC(=O)c1cc(C(F)(F)F)nn1-c1ncccc1Cl` (centres unmarked) [compound 113] the logP was “logP: 3.9 [pH = 10.0];”. In the case of `CCS(C)=NC(=O)c1cccc(C)c1NC(=O)c1cc(C(F)(F)F)nn1-c1ncccc1Cl` (centres unmarked) [compound 210], the logP is reported as “logP: 2.5 [pH = 10.0];”. In the case of `CCCS(C)=NC(=O)c1cc(I)cc(C)c1NC(=O)c1cc(Br)nn1-c1ncccc1Cl` (racemic) [compound 272], the logP is reported as “logP: 3.2 [pH = 10.0]”. With `CCCS(C)=NC(=O)c1cccc(C)c1NC(=O)c1cc(C(F)(F)F)nn1-c1ncccc1Cl` (centres unmarked) [compound 211] the logP was “logP: 2.8 [pH = 10.0];”. In the case of `CCS(C)=NC(=O)c1cc(Cl)cc(C)c1NC(=O)c1cc(Br)nn1-c1ncccc1Cl` (centres unmarked) [compound 224], the logP is reported as “logP: 2.7 [pH = 10.0];”. With `Cc1cc(I)cc(C(=O)N=S2CCCCC2)c1NC(=O)c1cc(Br)nn1-c1ncccc1Cl` [compound 267] the logP was “logP: 3.4 [pH = 10.0];”. In the case of `Cc1cc(I)cc(C(=O)N=S(C(C)C)C(C)C)c1NC(=O)c1cc(Br)nn1-c1ncccc1Cl` [compound 257], the logP is reported as “logP: 3.3 [pH = 10.0];”. In the case of `Cc1cc(I)cc(C(=O)N=S2CCCC2)c1NC(=O)c1cc(C(F)(F)F)nn1-c1ncccc1Cl` [compound 137], the logP is reported as “logP: 3.1 [pH = 10.0];”. In the case of `Cc1cc(I)cc(C(=O)N=S(C(C)C)C(C)C)c1NC(=O)c1cc(C(F)(F)F)nn1-c1ncccc1Cl` [compound 120], the logP is reported as “logP: 3.4 [pH = 10.0];”. With `Cc1cccc(C(=O)N=S(C(C)C)C(C)C)c1NC(=O)c1cc(Br)nn1-c1ncccc1Cl` [compound 236] the logP was “logP: 2.3 [pH = 10.0];”. For `CCCCCS(CCO)=NC(=O)c1cc(Cl)cc(C)c1NC(=O)c1cc(Br)nn1-c1ncccc1Cl` (centres unmarked) [compound 258], the logP was “logP: 3.4 [pH = 10.0];”. In the case of `C#CCOc1cc(C(=O)Nc2c(C)cc(Cl)cc2C(=O)N=S(C)c2ccc(F)cc2)n(-c2ncccc2Cl)n1` (centres unmarked) [compound 201], the logP is reported as “logP: 2.9 [pH = 10.0]”. In the case of `CCCS(C)=NC(=O)c1cc(Cl)cc(C)c1NC(=O)c1cc(C(F)(F)F)nn1-c1ncccc1Cl` (centres unmarked) [compound 11], the logP is reported as “logP: 3.2 [pH = 10.0]”. In the case of `CCCCCS(CCO)=NC(=O)c1cccc(C)c1NC(=O)c1cc(C(F)(F)F)nn1-c1ncccc1Cl` (centres unmarked) [compound 213], the logP is reported as “logP: 3.4 [pH = 10.0];”. For `Cc1cc(Cl)cc(C(=O)N=S(C)c2ccc(F)cc2)c1NC(=O)c1cc(Br)nn1-c1ncccc1Cl` (centres unmarked) [compound 235], the logP was “logP: 3.2 [pH = 10.0];”. With `C#CCOc1cc(C(=O)Nc2c(C)cc(Cl)cc2C(=O)N=S(CCO)CCCCC)n(-c2ncccc2Cl)n1` (centres unmarked) [compound 216] the logP was “logP: 3.3 [pH = 10.0]”. With `CCCCCS(CCO)=NC(=O)c1cc(Cl)cc(C)c1NC(=O)c1cc(C(F)(F)F)nn1-c1ncccc1Cl` (centres unmarked) [compound 48] the logP was “logP: 3.6 [pH = 10.0];”. For `CCS(CCCl)=NC(=O)c1cc(I)cc(C)c1NC(=O)c1cc(Br)nn1-c1ncccc1Cl` (centres unmarked) [compound 268], the logP was “logP: 3.2 [pH = 10.0];”. For `CCS(C)=NC(=O)c1cc(Cl)cc(C)c1NC(=O)c1cc(C(F)(F)F)nn1-c1ncccc1Cl` (centres unmarked) [compound 152], the logP was “logP: 2.9 [pH = 10.0];”. For `C#CCOc1cc(C(=O)Nc2c(C)cc(Cl)cc2C(=O)N=S(C(C)C)C(C)C)n(-c2ncccc2Cl)n1` [compound 197], the logP was “logP: 2.7 [pH = 10.0]”. In the case of `Cc1cc(I)cc(C(=O)N=S2CCSC2)c1NC(=O)c1cc(Br)nn1-c1ncccc1Cl` (centres unmarked) [compound 221], the logP is reported as “logP: 3.3 [pH = 10.0];”. In the case of `Cc1cc(Cl)cc(C(=O)N=S(C(C)C)C(C)C)c1NC(=O)c1cc(Br)nn1-c1ncccc1Cl` [compound 243], the logP is reported as “logP: 2.9 [pH = 10.0]”. With `Cc1cccc(C(=O)N=S(C)C)c1NC(=O)c1cc(Br)nn1-c1ncccc1Cl` [compound 274] the logP was “logP: 1.9 [pH = 10.0];”. With `CCCS(C)=NC(=O)c1cc(I)cc(C)c1NC(=O)c1cc(C(F)(F)F)nn1-c1ncccc1Cl` (centres unmarked) [compound 93] the logP was “logP: 3.6 [pH = 10.0];”. With `Cc1cc(I)cc(C(=O)N=S(C)C)c1NC(=O)c1cc(C(F)(F)F)nn1-c1ncccc1Cl` [compound 31] the logP was “logP: 3.2 [pH = 10.0];”. For `CCCS(C)=NC(=O)c1cccc(C)c1NC(=O)c1cc(Br)nn1-c1ncccc1Cl` (centres unmarked) [compound 263], the logP was “logP: 2.3 [pH = 10.0];”. For `CCCCCS(CCO)=NC(=O)c1cc(I)cc(C)c1NC(=O)c1cc(Br)nn1-c1ncccc1Cl` (centres unmarked) [compound 252], the logP was “logP: 3.7 [pH = 10.0]”. With `C=CS(CC)=NC(=O)c1cccc(C)c1NC(=O)c1cc(Br)nn1-c1ncccc1Cl` (centres unmarked) [compound 261] the logP was “logP: 2.1 [pH = 10.0];”. In the case of `CCCS(C)=NC(=O)c1cc(Cl)cc(C)c1NC(=O)c1cc(Br)nn1-c1ncccc1Cl` (centres unmarked) [compound 242], the logP is reported as “logP: 2.9 [pH = 10.0];”. For `C#CCOc1cc(C(=O)Nc2c(C)cc(I)cc2C(=O)N=S(CCO)CCCCC)n(-c2ncccc2Cl)n1` (centres unmarked) [compound 195], the logP was “logP: 3.5 [pH = 10.0]”.

System: vetch aphid (Megoura viciae)
Assay: Vetch aphid (Megoura viciae) broad bean leaf disk microtiter test
Type: in vivo
Settings: 1415 ppm; broad bean leaf disks; 5 days
Method: B.2 Vetch Aphid (Megoura viciae)
For evaluating control of vetch aphid (Megoura viciae) through contact or systemic means the test unit consists of 24-well-microtiter plates containing broad bean leaf disks.
The compounds are formulated using a solution containing 75% v/v water and 25% v/v DMSO. Different concentrations of formulated compounds are sprayed onto the leaf disks at 2.5 μl, using a custom built micro atomizer, at two replications.
After application, the leaf disks are air-dried and 5-8 adult aphids placed on the leaf disks inside the microtiter plate wells. The aphids are then allowed to suck on the treated leaf disks and incubated at about […] and about 50±5% relative humidity for 5 days. Aphid mortality and fecundity is then visually assessed.
In the case of `CCS(CC1CC1)=NC(=O)c1cc(Cl)cc(C)c1N` (centres unmarked) [S.9], the “mortality in comparison with untreated controls” value is reported as “over 75%”.
